What was measured:
[1] = target: T1, ITK (Homo sapiens, UniProt Q08881); assay: scanMAX binding POC, ITK; conditions: 1 μM
T1 sequence (Q08881 1-620): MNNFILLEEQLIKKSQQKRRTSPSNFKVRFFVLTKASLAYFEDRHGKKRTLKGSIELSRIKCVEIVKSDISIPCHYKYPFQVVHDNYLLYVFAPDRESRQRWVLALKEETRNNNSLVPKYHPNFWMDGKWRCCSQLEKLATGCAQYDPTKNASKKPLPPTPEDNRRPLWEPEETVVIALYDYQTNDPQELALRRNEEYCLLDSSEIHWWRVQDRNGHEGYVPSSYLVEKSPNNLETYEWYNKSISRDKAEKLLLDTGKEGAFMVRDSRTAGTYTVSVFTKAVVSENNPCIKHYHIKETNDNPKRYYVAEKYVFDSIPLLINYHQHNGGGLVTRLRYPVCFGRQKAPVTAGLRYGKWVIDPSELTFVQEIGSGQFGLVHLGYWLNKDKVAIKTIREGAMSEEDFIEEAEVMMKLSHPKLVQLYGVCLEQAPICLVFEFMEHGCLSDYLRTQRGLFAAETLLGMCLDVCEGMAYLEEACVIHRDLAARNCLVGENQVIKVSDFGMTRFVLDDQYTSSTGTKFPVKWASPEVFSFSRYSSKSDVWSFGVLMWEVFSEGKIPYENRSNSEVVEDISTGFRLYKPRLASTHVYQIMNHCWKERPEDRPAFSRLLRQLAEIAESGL
Source text: (§1) Comprehensive Characterization of Bruton’s Tyrosine Kinase Inhibitor Specificity, Potency, and
(§2) Biological Effects: Insights into Covalent and Non-Covalent Mechanistic Signatures
(§3) Antonia C. Darragh1, Andrew M. Hanna1, Justin H. Lipner2, Alastair J. King2, Nicole B. Servant1, Mirza Jahic1*
(§4) *To whom correspondence should be addressed: Mirza Jahic, e-mail address: Mirza.Jahic@discovery.eurofinsus.com
(§5) Supporting Table S1. Comparison of BTK inhibitor specificity to TEC family members. TEC family members are
(§6) Burton’s tyrosine kinase (BTK), tyrosine kinase expressed in hepatocellular carcinoma (TEC), bone marrow-
(§7) expressed kinase (BMX/ETK), and T cell-expressed kinase (TXK/RLK), and interleukin-2-inducible T cell kinase
(§8) A zero POC signifies that the compound

[2] = target: T2, MKK7 (Homo sapiens, UniProt O14733); assay: scanMAX binding POC, MKK7; conditions: 1 μM
T2 sequence (O14733 1-419): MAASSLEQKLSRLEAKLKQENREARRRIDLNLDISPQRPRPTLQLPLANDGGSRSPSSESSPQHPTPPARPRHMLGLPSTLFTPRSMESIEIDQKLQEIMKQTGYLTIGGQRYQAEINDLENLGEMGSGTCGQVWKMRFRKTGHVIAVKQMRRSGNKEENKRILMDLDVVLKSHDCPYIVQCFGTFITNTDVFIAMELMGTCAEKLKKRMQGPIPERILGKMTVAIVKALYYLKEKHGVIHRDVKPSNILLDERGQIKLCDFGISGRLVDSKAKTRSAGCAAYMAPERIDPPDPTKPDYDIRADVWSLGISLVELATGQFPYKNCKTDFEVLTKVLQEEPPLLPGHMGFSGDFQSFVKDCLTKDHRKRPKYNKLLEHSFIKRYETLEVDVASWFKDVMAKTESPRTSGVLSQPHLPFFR

[3] = target: T3, BTK (Homo sapiens, UniProt Q06187); assay: scanMAX binding POC, BTK; conditions: 1 μM; zero POC = competition comparable to positive control
T3 construct: host or cells: transiently transfected HEK293 cells
Source text: as §1, §2, §3, §4, §5, §6, §7, §8

[4] = target: BLK (Homo sapiens, UniProt P51451); assay: scanMAX binding POC, BLK; conditions: 1 μM
[5] = target: T4, JAK3 (JH1 catalytic domain) (Homo sapiens, UniProt P52333); assay: scanMAX binding POC, JAK3; conditions: 1 μM
T4 construct: The JAK3 POC is for its JH1 catalytic domain
T4 sequence (P52333 822-1111 limits assumed): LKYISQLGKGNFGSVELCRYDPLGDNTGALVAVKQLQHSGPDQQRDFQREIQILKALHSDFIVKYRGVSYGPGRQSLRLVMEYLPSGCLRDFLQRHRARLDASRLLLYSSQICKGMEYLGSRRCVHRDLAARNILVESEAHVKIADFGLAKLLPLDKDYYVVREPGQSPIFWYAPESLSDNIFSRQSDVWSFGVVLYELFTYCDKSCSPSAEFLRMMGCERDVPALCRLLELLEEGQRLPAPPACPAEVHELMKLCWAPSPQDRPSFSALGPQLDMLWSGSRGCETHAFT

[6] = target: JNK2 (MAPK9) (Homo sapiens, UniProt P45984); assay: scanMAX binding POC, JNK2; conditions: 1 μM
JNK2 (MAPK9), sequence (P45984 whole entry): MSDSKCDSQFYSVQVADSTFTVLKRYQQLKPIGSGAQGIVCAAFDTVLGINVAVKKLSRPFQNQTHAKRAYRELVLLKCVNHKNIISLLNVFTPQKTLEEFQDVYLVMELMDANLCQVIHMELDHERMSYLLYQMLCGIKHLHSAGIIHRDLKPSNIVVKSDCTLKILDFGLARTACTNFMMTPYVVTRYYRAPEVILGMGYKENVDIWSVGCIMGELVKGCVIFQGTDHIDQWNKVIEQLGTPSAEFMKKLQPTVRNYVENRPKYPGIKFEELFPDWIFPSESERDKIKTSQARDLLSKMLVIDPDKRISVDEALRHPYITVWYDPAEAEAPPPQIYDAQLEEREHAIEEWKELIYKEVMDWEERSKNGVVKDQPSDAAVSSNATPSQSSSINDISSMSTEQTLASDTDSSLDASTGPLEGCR
Protocol: (§9) The compounds were diluted directly into the assays such that the final concentration of DMSO was 0.9%. No enzyme purification steps were performed on the protein extracts before adding them to the reaction mixture, and the protein extracts were diluted 10,000-fold in the final reaction mixture (the final DNA-tagged enzyme concentration was less than 0.1 nM). Binding assay mixtures were incubated at 25 °C with shaking for 1 h. […] The concentration of wild-type or mutant BTK in the eluates was then determined using quantitative PCR. […] Each assay’s affinity ligand concentration on the magnetic beads has been optimized to ensure that the true thermodynamic Kd values for competitor molecules were measured, as described in detail previously99.
(§10) Comparison of BTK inhibitor specificity to c-Jun N-terminal kinases (JNK1-3/MAPKP8-10).
(§11) a The percent of control (POC) is the percent of kinase that was competed off its control ligand relative to the positive and negative controls at the screening concentration56. A zero POC signifies that the compound

[7] = target: T5, TXK (Homo sapiens, UniProt P42681); assay: scanMAX binding POC, TXK; conditions: 1 μM
T5 sequence (P42681 1-527): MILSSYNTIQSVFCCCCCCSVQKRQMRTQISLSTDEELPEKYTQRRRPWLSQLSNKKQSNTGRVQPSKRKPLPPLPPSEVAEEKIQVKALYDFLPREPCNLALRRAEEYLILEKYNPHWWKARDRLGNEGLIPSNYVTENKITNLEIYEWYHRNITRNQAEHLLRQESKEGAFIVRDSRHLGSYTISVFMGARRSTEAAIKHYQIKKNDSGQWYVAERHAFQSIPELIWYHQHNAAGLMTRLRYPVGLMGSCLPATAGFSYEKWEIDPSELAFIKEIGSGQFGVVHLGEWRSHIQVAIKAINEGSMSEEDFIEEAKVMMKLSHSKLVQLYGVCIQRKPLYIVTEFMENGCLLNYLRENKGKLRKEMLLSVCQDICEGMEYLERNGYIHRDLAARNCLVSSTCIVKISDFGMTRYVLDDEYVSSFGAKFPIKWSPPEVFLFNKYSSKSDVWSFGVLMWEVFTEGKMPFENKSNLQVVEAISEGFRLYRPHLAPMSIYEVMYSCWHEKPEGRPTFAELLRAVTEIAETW
Source text: as §1, §2, §3, §4, §5, §6, §7, §8

[8] = target: ERBB4 (Homo sapiens, UniProt Q15303); assay: scanMAX binding POC, ERBB4; conditions: 1 μM
[9] = target: T6, TEC (Homo sapiens, UniProt P42680); assay: scanMAX binding POC, TEC; conditions: 1 μM
T6 sequence (P42680 1-631): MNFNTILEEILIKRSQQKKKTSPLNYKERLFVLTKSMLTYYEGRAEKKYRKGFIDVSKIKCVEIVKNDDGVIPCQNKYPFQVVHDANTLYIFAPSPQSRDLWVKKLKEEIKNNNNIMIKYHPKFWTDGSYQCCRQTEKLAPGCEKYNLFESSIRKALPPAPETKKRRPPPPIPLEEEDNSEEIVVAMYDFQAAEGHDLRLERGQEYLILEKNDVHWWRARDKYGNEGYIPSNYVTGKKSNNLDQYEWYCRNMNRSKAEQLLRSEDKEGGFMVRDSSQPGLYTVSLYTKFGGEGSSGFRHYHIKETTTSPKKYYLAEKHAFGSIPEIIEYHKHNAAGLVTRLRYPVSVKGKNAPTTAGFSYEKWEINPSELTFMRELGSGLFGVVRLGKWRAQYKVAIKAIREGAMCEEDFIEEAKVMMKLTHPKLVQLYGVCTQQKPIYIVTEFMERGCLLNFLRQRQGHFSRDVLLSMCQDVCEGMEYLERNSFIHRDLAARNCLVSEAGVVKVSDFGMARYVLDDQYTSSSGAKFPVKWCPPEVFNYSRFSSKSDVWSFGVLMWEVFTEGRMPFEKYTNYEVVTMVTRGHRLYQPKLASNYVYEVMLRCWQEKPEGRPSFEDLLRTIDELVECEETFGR
Source text: as §1, §2, §3, §4, §5, §6, §7, §8

[10] = target: JNK1 (MAPK8) (Homo sapiens, UniProt P45983); assay: scanMAX binding POC, JNK1; conditions: 1 μM
Protocol: as §9, §10, §11

[11] = target: JNK3 (MAPK10) (Homo sapiens, UniProt P53779); assay: scanMAX binding POC, JNK3; conditions: 1 μM
JNK3 (MAPK10), sequence (P53779 whole entry): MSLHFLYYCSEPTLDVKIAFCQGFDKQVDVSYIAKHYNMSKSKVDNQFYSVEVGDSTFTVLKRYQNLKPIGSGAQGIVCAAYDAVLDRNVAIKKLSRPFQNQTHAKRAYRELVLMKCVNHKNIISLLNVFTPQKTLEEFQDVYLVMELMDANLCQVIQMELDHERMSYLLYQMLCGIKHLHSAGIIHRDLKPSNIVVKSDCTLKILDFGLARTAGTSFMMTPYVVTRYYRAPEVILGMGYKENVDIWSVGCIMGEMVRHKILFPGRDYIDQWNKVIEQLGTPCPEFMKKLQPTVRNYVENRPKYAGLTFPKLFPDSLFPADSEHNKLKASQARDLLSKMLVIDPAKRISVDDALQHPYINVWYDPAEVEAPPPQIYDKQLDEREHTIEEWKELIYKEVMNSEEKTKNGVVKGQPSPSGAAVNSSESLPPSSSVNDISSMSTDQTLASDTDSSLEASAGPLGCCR
Protocol: as §9, §10, §11

[12] = target: ERBB3 (Homo sapiens, UniProt P21860); assay: scanMAX binding POC, ERBB3; conditions: 1 μM
ERBB3, sequence (P21860 20-1342): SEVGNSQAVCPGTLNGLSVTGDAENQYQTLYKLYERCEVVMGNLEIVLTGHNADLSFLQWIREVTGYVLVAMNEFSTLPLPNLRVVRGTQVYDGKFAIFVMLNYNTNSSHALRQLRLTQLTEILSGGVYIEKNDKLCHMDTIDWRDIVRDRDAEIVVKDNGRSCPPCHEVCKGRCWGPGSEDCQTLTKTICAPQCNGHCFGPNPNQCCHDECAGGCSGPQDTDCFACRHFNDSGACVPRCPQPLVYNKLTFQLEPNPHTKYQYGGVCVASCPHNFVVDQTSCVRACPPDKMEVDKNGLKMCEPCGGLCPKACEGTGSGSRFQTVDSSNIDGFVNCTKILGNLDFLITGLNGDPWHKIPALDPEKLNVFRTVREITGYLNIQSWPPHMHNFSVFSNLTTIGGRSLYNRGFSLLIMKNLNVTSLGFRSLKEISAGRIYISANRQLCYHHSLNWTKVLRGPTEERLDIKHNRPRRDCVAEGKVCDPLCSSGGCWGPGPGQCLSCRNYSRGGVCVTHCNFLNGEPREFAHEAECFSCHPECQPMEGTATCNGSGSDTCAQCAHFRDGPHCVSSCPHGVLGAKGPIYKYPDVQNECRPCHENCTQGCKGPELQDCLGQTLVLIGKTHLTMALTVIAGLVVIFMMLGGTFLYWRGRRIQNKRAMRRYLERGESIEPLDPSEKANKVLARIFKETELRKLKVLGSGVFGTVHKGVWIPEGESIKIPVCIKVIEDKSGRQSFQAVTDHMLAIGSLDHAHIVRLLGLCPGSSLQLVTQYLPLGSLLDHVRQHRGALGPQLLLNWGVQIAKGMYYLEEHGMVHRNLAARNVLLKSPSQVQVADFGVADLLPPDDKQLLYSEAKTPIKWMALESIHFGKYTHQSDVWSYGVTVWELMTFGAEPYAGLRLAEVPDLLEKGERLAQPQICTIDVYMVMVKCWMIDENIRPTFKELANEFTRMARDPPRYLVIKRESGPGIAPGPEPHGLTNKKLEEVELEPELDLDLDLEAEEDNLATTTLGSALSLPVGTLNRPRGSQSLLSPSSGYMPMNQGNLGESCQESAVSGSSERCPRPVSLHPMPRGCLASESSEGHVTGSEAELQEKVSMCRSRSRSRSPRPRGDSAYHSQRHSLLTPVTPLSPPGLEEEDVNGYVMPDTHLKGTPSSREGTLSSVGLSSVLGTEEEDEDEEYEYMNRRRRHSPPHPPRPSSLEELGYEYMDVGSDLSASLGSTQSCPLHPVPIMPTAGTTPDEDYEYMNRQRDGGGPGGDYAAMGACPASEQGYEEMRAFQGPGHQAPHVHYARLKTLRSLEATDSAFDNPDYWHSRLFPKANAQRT

[13] = target: EGFR (Homo sapiens, UniProt P00533); assay: scanMAX binding POC, EGFR; conditions: 1 μM
EGFR, sequence (P00533 25-1210): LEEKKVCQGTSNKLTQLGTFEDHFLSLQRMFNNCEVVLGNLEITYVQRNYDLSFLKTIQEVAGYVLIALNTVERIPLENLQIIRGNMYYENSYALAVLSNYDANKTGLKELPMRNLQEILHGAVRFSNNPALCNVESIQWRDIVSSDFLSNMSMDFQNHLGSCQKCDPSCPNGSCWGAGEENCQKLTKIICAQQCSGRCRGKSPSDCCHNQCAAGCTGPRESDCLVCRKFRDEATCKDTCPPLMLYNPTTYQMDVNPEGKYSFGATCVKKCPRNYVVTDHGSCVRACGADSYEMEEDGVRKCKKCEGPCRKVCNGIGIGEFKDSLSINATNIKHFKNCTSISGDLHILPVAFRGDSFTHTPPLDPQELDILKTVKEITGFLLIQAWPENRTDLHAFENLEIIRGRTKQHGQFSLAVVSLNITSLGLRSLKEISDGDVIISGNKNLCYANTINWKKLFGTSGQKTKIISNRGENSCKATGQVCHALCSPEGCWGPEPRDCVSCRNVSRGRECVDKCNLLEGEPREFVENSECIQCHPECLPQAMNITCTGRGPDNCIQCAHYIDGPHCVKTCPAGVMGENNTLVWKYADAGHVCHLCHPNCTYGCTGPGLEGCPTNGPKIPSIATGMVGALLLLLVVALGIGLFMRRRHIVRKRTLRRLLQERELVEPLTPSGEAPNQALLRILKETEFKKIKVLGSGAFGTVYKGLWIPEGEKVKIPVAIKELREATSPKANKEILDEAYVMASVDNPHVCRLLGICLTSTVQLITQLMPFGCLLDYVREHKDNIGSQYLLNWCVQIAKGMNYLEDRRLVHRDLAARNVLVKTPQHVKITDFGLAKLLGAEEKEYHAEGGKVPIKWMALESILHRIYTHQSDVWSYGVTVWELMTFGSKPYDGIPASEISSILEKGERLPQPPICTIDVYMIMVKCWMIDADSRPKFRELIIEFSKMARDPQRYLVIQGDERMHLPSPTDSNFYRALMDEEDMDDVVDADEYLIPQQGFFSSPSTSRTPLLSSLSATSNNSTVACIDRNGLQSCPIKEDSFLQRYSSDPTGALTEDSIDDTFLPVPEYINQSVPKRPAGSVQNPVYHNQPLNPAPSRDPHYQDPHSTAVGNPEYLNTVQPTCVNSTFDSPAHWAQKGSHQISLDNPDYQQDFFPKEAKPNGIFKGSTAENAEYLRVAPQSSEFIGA

[14] = target: ERBB2 (Homo sapiens, UniProt P04626); assay: scanMAX binding POC, ERBB2; conditions: 1 μM
ERBB2, sequence (P04626 23-1255): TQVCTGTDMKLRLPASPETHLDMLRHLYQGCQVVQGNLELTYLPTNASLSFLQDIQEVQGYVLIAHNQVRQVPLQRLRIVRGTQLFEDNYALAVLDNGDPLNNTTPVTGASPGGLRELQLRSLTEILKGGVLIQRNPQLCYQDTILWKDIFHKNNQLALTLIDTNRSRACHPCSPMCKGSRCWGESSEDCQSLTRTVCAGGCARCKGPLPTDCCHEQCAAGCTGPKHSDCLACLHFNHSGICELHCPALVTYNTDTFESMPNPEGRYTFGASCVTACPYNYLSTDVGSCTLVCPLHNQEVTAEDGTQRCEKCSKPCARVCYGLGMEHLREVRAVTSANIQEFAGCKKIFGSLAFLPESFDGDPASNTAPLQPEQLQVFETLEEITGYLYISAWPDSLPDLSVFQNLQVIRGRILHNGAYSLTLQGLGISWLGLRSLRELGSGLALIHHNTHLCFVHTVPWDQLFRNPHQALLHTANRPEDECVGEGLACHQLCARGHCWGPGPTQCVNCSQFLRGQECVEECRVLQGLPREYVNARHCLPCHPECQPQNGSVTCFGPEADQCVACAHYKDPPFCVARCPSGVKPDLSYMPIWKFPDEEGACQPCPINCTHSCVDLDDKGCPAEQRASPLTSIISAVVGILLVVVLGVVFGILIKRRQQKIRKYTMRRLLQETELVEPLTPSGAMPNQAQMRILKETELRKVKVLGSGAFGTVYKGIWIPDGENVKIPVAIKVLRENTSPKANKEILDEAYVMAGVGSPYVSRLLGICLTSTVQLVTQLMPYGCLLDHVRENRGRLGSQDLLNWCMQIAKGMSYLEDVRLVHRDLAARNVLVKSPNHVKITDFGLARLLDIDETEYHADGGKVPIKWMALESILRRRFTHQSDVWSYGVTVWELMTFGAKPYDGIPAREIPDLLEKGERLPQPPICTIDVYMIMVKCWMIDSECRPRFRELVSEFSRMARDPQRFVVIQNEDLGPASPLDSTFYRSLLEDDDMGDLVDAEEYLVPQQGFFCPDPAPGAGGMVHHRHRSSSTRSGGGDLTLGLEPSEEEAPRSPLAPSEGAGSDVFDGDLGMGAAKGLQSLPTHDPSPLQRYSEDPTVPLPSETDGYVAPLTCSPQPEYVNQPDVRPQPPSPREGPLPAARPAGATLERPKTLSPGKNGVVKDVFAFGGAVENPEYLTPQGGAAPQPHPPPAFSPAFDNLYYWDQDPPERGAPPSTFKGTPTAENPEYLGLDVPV

[15] = tested on: patients with R/R MCL; parameters: method as in NCT03494179; conditions: ref NCT03494179; cited from earlier work
[16] = target: T7, BMX (Homo sapiens, UniProt P51813); assay: scanMAX binding POC, BMX; conditions: 1 μM
T7 sequence (P51813 1-675): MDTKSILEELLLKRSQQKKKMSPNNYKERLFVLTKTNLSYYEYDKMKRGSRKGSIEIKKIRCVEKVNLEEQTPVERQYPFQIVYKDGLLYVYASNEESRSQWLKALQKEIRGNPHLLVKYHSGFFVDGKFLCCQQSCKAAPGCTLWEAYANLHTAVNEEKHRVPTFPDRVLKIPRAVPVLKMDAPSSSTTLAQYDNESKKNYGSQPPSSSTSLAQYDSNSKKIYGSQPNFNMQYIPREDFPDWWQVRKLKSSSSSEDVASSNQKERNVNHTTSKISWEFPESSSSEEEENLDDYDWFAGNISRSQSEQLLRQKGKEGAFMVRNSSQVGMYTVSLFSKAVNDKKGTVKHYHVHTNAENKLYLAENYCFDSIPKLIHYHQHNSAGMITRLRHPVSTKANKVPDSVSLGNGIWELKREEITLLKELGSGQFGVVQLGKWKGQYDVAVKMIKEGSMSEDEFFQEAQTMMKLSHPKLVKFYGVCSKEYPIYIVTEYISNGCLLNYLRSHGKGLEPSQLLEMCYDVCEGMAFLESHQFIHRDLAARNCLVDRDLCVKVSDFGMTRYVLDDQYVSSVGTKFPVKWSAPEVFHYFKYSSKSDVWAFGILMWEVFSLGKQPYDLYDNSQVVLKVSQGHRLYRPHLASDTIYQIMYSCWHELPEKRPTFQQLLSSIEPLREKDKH
Source text: as §1, §2, §3, §4, §5, §6, §7, §8

[17] = tested on: 468 kinases/kinase domains; conditions: scanMAX at 1 μM, POC <35
Protocol: The compounds were diluted directly into the assays such that the final concentration of DMSO was 0.9%. No enzyme purification steps were performed on the protein extracts before adding them to the reaction mixture, and the protein extracts were diluted 10,000-fold in the final reaction mixture (the final DNA-tagged enzyme concentration was less than 0.1 nM). Binding assay mixtures were incubated at 25 °C with shaking for 1 h. […] The concentration of wild-type or mutant BTK in the eluates was then determined using quantitative PCR.

[18] = tested on: BTK; conditions: cited from earlier work

CC#CC(=O)N[C@H]1CCCN(c2c(F)cc(C(N)=O)c3[nH]c(C)c(C)c23)C1 [Branebrutinib]
ITK binding POC [1]: 17% of control | MKK7 binding POC [2]: 100% of control | BTK binding POC [3]: 0% of control | BLK binding POC [4]: 3.2% of control | JAK3 binding POC [5]: 48% of control | JNK2 (MAPK9) POC [6]: 89% of control | TXK binding POC [7]: 2% of control | ERBB4 binding POC [8]: 75% of control | TEC binding POC [9]: 7.8% of control | JNK1 (MAPK8) POC [10]: 82% of control | JNK3 (MAPK10) POC [11]: 89% of control | ERBB3 binding POC [12]: 75% of control | EGFR binding POC [13]: 77% of control | ERBB2 binding POC [14]: 100% of control

C=CC(=O)N1CCC(CNc2ncnc(N)c2-c2ccc(Oc3ccccc3)cc2)CC1 [Evobrutinib]
MKK7 binding POC [2]: 100% of control | JAK3 binding POC [5]: 100% of control | JNK2 (MAPK9) POC [6]: 100% of control | TXK binding POC [7]: 23% of control | ERBB4 binding POC [8]: 32% of control | TEC binding POC [9]: 10% of control | JNK1 (MAPK8) POC [10]: 95% of control | JNK3 (MAPK10) POC [11]: 100% of control | ERBB3 binding POC [12]: 97% of control | EGFR binding POC [13]: 88% of control | ERBB2 binding POC [14]: 91% of control

C=CC(=O)N1CCC(c2ccc(C(N)=O)c(-c3ccc(Oc4ccccc4)cc3)n2)CC1 [Orelabrutinib]
ITK binding POC [1]: 100% of control | MKK7 binding POC [2]: 100% of control | BLK binding POC [4]: 52% of control | JAK3 binding POC [5]: 89% of control | CR [15]: 27.4% | PR [15]: 53.8% | overall response rate [15]: 81.1% | JNK2 (MAPK9) POC [6]: 100% of control | TXK binding POC [7]: 34% of control | ERBB4 binding POC [8]: 96% of control | JNK1 (MAPK8) POC [10]: 100% of control | JNK3 (MAPK10) POC [11]: 100% of control | ERBB3 binding POC [12]: 88% of control | BMX binding POC [16]: 27% of control | ERBB2 binding POC [14]: 100% of control

C=CC(=O)N(C)CCOc1c(N)ncnc1-c1cc(F)cc(NC(=O)c2ccc(C3CC3)cc2F)c1C [Remibrutinib]
ITK binding POC [1]: 97% of control | MKK7 binding POC [2]: 100% of control | BTK binding POC [3]: 0.15% of control | BLK binding POC [4]: 100% of control | JAK3 binding POC [5]: 100% of control | JNK2 (MAPK9) POC [6]: 99% of control | TXK binding POC [7]: 97% of control | ERBB4 binding POC [8]: 100% of control | TEC binding POC [9]: 20% of control | JNK1 (MAPK8) POC [10]: 93% of control | JNK3 (MAPK10) POC [11]: 100% of control | ERBB3 binding POC [12]: 100% of control | off-target hits [17]: one | IC50 [18]: 1.3 nM | EGFR binding POC [13]: 99% of control | ERBB2 binding POC [14]: 100% of control

C=CC(=O)N1CCC[C@@H](n2c(=O)n(-c3ccc(Oc4ccccc4)cc3)c3c(N)nccc32)C1 [Tolebrutinib]
ITK binding POC [1]: 67% of control | MKK7 binding POC [2]: 19% of control | MKK7 binding POC ([2]; listed as tolebrutinib): weak hit | BLK binding POC [4]: 0.05% of control | JAK3 binding POC [5]: 36% of control | JNK2 (MAPK9) POC [6]: 83% of control | TXK binding POC [7]: 1.1% of control | JNK1 (MAPK8) POC [10]: 96% of control | JNK3 (MAPK10) POC [11]: 90% of control | ERBB3 binding POC [12]: 0.8% of control | BMX binding POC [16]: 11% of control | ERBB2 binding POC [14]: 0% of control

Source: paper PMC11997881, “Comprehensive Characterization of Bruton’s Tyrosine Kinase Inhibitor Specificity, Potency, and Biological Effects: Insights into Covalent and Noncovalent Mechanistic Signatures” (ACS Pharmacology & Translational Science, 2025)
